Marks after values point to notes of the source that are not given here.
Key:
[1] = Drilled well water softening and purification (Example 15)
Experimental: Drilled well sample 1 (DW 1) was nearby Tampere and sample 2 (DW 2) nearby Turku. Samples (100 ml each) were stirred with 1a (1.0 g) for 24 h. The initial and final metal concentrations in solutions of selected metals were determined by using ICP-AES analysis after filtration and results are shown in Table 9.

[2] = Effect of complexation agent amount on expulsion percent (Example 11); details: Ca^2+ 2 ppm, pH 2.9
Experimental: A water solution (110 ml) containing known amount of single cationic element or elements, typically 0.5-200 ppm, was prepared from Merch Titrisol® standard solution. After adjusting pH by using acid (e.g. HCl or HNO3) or base (e.g. NaOH) to desired initial value, sample A (10 ml) was taken followed by adding 100 mg of selected solid complexation agent. The mixture was stirred at room temperature for 24 h and sample B (10 ml) was taken. Samples A and B were filtrated separately trough 0.2 μm syringe filter and the concentration of the studied element or elements in both solution was determined by using atomic absorption spectrophotometer. The expulsion percent was determined from the concentration differences between the sample solutions A and B.
Effect of amount of complexation agent 1a to expulsion percent was tested with 2.0 ppm calcium (Ca^2+) solution. A solution (100 ml) containing 2.0 ppm of calcium was stirred for 24 h with desired amount of complexation agent 1a (25 to 301 mg) at pH 2.9. Expulsions percent were determined for each solution using the general procedure and the results are collected in Table 6.

[3] = Purification of waste water containing heavy metals, TS 2 (Example 17)
Experimental: Waste water sample from dumping site containing some heavy metals: ca. 2 g/l of Ca^2+; […] of As^3+ (or As^5+), Cr^3+, Fe^2/3+, Pb^2+, Sr^2+, Zn^2+ and Hg^2+; pH 3.56.
TS 2 (100 ml), which initial metal cation concentrations were determined by AAS and ICP-AES methods, was treated with 1a (1.0 g) with stirring for 24 h. After filtration trough 0.2 μm syringe filter metal concentrations in solution were determined.

NCCCCCCCCCCC(O)(P(=O)(O)O)P(=O)(O)O [Compound 1a, 11-Amino-1-hydroxyundecane-1,1-diyldiphosphonic acid]
Concentration after 1a ([1]; DW 1 (pH 7.04), Al^3+, initial <0.05 mg/l): <0.05 mg/L
Concentration after 1a ([1]; DW 1 (pH 7.04), Ca^2+, initial 43.8 mg/l): 0.232 mg/L
Concentration after 1a ([1]; DW 1 (pH 7.04), Cu^2+, initial <0.05 mg/l): <0.05 mg/L
Concentration after 1a ([1]; DW 1 (pH 7.04), Mg^2+, initial 10.9 mg/l): <0.1^4) mg/l
Concentration after 1a ([1]; DW 1 (pH 7.04), Mn^2+, initial 0.095 mg/l): <0.02^4) mg/l
Concentration after 1a ([1]; DW 1 (pH 7.04), Na^+, initial 15.2 mg/l): 13.5 mg/L
Concentration after 1a ([1]; DW 1 (pH 7.04), Sr^2+, initial 0.097 mg/l): <0.02^4) mg/l
Concentration after 1a ([1]; DW 1 (pH 7.04), Zn^2+, initial 0.044 mg/l): 0.018 mg/L
Expulsion [%] ([1]; DW 1, Ca^2+): 99%
Expulsion [%] ([1]; DW 1, Mg^2+): ≥ 99^5) %
Expulsion [%] ([1]; DW 1, Mn^2+): ≥ 79^5) %
Expulsion [%] ([1]; DW 1, Na^+): 11%
Expulsion [%] ([1]; DW 1, Sr^2+): ≥ 79^5) %
Expulsion [%] ([1]; DW 1, Zn^2+): ≥ 59^5) %
Concentration after 1a ([1]; DW 2 (pH 6.97), Al^3+, initial 0.107 mg/l): <0.05^4) mg/l
Concentration after 1a ([1]; DW 2 (pH 6.97), Ca^2+, initial 22.2 mg/l): 0.479 mg/L
Concentration after 1a ([1]; DW 2 (pH 6.97), Cu^2+, initial 0.271 mg/l): <0.05^4) mg/l
Concentration after 1a ([1]; DW 2 (pH 6.97), Mg^2+, initial 13.60 mg/l): 0.102 mg/L
Concentration after 1a ([1]; DW 2 (pH 6.97), Mn^2+, initial <0.02 mg/l): <0.02 mg/L
Concentration after 1a ([1]; DW 2 (pH 6.97), Na^+, initial 19.0 mg/l): 17.3 mg/L
Concentration after 1a ([1]; DW 2 (pH 6.97), Sr^2+, initial 0.113 mg/l): 0.029 mg/L
Concentration after 1a ([1]; DW 2 (pH 6.97), Zn^2+, initial 0.284 mg/l): 0.026 mg/L
Expulsion [%] ([1]; DW 2, Al^3+): ≥ 53^5) %
Expulsion [%] ([1]; DW 2, Ca^2+): 98%
Expulsion [%] ([1]; DW 2, Cu^2+): ≥ 82^5) %
Expulsion [%] ([1]; DW 2, Mg^2+): 99%
Expulsion [%] ([1]; DW 2, Na^+): 9%
Expulsion [%] ([1]; DW 2, Sr^2+): 74%
Expulsion [%] ([1]; DW 2, Zn^2+): 91%
Expulsion [%] ([2]; 25 mg of 1a in 100 ml): 41.3%
Expulsion [%] ([2]; 52 mg of 1a in 100 ml): 45.9%
Expulsion [%] ([2]; 75 mg of 1a in 100 ml): 53.6%
Expulsion [%] ([2]; 101 mg of 1a in 100 ml): 59.4%
Expulsion [%] ([2]; 125 mg of 1a in 100 ml): 63.6%
Expulsion [%] ([2]; 150 mg of 1a in 100 ml): 67.1%
Expulsion [%] ([2]; 175 mg of 1a in 100 ml): 70.2%
Expulsion [%] ([2]; 200 mg of 1a in 100 ml): 71.0%
Expulsion [%] ([2]; 225 mg of 1a in 100 ml): 76.6%
Expulsion [%] ([2]; 250 mg of 1a in 100 ml): 79.6%
Expulsion [%] ([2]; 275 mg of 1a in 100 ml): 85.6%
Expulsion [%] ([2]; 301 mg of 1a in 100 ml): 83.5%
Expulsion [%] ([3]; As^3/5+): ≥ 61.7^2) %
Expulsion [%] ([3]; Ca^2+): 75.4%
Expulsion [%] ([3]; Cd^2+): ≥ 89.4^5) %
Expulsion [%] ([3]; Cr^3+): 23.9%
Expulsion [%] ([3]; Fe^2/3+): 22.8%
Expulsion [%] ([3]; Hg^1/2+ (CVAAS)): 99.0^1) %
Expulsion [%] ([3]; Pb^2+): ≥ 68.9^5) %
Expulsion [%] ([3]; Sr^2+): 84.3%
Expulsion [%] ([3]; Zn^2+): 76.8%
